# In PMC8765435, “In Vitro Antimalarial Activity of Inhibitors of the Human GTPase Rac1” (Antimicrobial Agents and Chemotherapy, 2022):
# What was measured:
# [1] = tested on: P. falciparum intraerythrocytic parasites; experiment: Parasite intraerythrocytic growth (Giemsa smears); assay type: cell-based, Plasmodium falciparum; settings: 1.4 μM
# Protocol: A culture of erythrocytes freshly invaded by P. falciparum parasites was set up as previously described ([17]). Parasites were exposed to 1.4 μM EHop-016, and an untreated control was set up. Blood smears were taken at 20, 27, and 39 hpi, corresponding to late ring, trophozoite, and schizont stages, and then Giemsa stained and counted by optical microscopy in order to assess parasitemia. Pictures of the blood smears were taken with a Leica ICC50W camera. These experiments were performed in three biological replicates.
# [2] = tested on: P. falciparum asexual parasites, chloroquine-sensitive D10 strain; experiment: Drug susceptibility assay (pLDH), asexual parasites, D10 strain; assay type: cell-based, Plasmodium falciparum; settings: Plasmodium falciparum, D10, chloroquine-sensitive D10 strain; read-out: IC50, D10 strain
# Protocol: (§1) Chloroquine (CQ)-sensitive (D10, wild-type 3D7, or transgenic 3D7elo1-pfs16-CBG99) and CQ-resistant (W2) strains of P. falciparum were cultured as described previously ([58]), with slight modifications, as detailed in the supplemental material.
# (§2) Asexual parasite growth was determined spectrophotometrically (optical density at 650 nm [OD650]) by measuring the activity of parasite lactate dehydrogenase (pLDH), according to a modified version of the method of Makler et al. ([59]). Gametocyte viability was measured by a luminescence method described previously ([60]). Details for the two methods are reported in the supplemental material. From either the OD or ALU (arbitrary luminescence units), the percentages of viability were calculated according to the formula 100 × (treated sample signal − blank signal)/(untreated control signal − blank signal). The blank for the pLDH assay was uninfected RBCs at the same hematocrit as that of parasitized RBCs, and the blank for the luminescence assay was parasites treated with a high dose of methylene blue. […]
# The CQ-sensitive (D10) and the CQ-resistant (W2) strains were maintained at 5% hematocrit […]
# supplemented with 1% AlbuMaxII (lipid-rich bovine serum albumin) (Invitrogen), 0.01% hypoxantine (Sigma), 20mM Hepes (EuroClone), 2 mM glutamine (EuroClone). […]
# In vitro P. falciparum drug susceptibility assay […]
# plate were transferred to a plate containing 100µl of Malstat reagent (0.11% [vol/vol] Triton- […]
# dinucleotide [APAD] [Sigma-Aldrich], adjusted to pH 9 with 1 M HCl) and 25 µl of PES/NBT […]
# pLDHassay. The plate was read at a wavelength of 650 nm using a microplate reader, Synergy4 […]
# Uninfected RBC at the same HCT than parasites were used as blank. […]
# [3] = parameters: method as in PMID 25389450, PMID 25594952; settings: mice, orally, 25 mg/kg three times a week for 55 days; cited from earlier work
# [4] = tested on: HMEC-1 human microvascular endothelial cells; experiment: Cell cytotoxicity MTT assay; assay type: cell-based
# Protocol: Cytotoxicity was evaluated on human microvascular endothelial cells (HMEC-1) as detailed in the supplemental material. […] Plates were then read on a microplate reader (Synergy 4; BioTek) at a wavelength of 550 nm (reference, 650 nm). […] All tests were performed in duplicate at least three times.
# The selectivity index (SI) is the ratio between the cytotoxic IC50 value against HMEC-1 cells and the parasitic IC50 value against the D10 strain and indicates the compound selectivity for the parasite.
# Cytotoxicity was evaluated on Human Microvascular Endothelial Cells (HMEC-1) maintained
# and 2 mM L-glutamine. Cells were seeded in 96 well flat bottom tissue culture clusters (1.5x104
# cells/well), let adhere overnight and treated with serial dilutions of test compounds . […]
# 3D7 mature gametocytes = experiment: Gametocyte viability luminescence assay, mature gametocytes; assay type: cell-based, Plasmodium falciparum; settings: Plasmodium falciparum, 3D7; stage V gametocytes, 72 h, luminescence; read-out: Mean IC50 ± SD, 3D7 mature gametocytes
# Protocol: as §1, §2
# strain (wild type or transgenic 3D7elo1-pfs16-CBG99 strain) was cultured in similar conditions, except for 10% naturally clotted Human O+ serum instead of AlbuMaxII and human type O-positive instead of A-positive RBCs. […]
# in a standard gas mixture consisting of 1% O2, 5% CO2, 94% N2. Immature (stage II-III) and mature (stage V) gametocytes were obtained as described1. Briefly, cultures were diluted to 0.5% parasitemia at 5% HCT, and the medium was changed daily until parasites were stressed by nutrient deprivation. N-acetylglucosamine (NAG) (Sigma-Aldrich) 50 mM was then added to clear residual asexual parasites: Stage II and III gametocytes were obtained 4 days after NAG addition to the culture, while stage IV and V gametocytes were used 11 to 13 days from NAG addition. Gametocyte stages were routinely checked on Giemsa-stained smears. […]
# Drug treated gametocyte cultures were transferred to 96-well black microplates and D-luciferin (1 mM in citrate buffer 0.1 M, pH 5.5) was added at a 1:1 volume ratio. Luminescence measurements were performed after 10 min with 500 ms integration time. Gametocytes treated
# [5] = tested on: P. falciparum W2 asexual parasites; experiment: Association experiments (isobologram), W2 parasites; assay type: cell-based, Plasmodium falciparum; settings: in combination with 1A116, W2 parasites
# Protocol: The effect of 1A116 on the IC50 of EHop-016 was determined by potentiation tests as previously described ([62]). Isobolograms were created by plotting a pair of fractional IC50s for each combination of EHop-016 and 1A116. […] The corresponding 1A116 fractional IC50s were calculated by dividing each fixed concentration by the IC50 of 1A116 alone and plotted on the vertical axis.
# Rac1 = tested on: Rac1; parameters: method as in PMID 22383527; settings: Rac1 activity in MDA-MB-435 melanoma cells; cited from earlier work
smiles,measurement,setting,value
CCn1c2ccccc2c2cc(Nc3ccnc(NCCCN4CCOCC4)n3)ccc21 [EHop-016],parasitemia compared to untreated control,"[1]; 20, 27 and 39 hpi","significant, time-dependent reduction in parasitemia"
same,parasite developmental process,[1]; up to 39 hpi,complete block of the developmental process
same,IC50,[2],139 ± 16 nM
same,changes in weight or behavior,[3],did not cause any significant changes in weight or behavior
same,IC50,"[4]; Homo sapiens, HMEC-1, MTT, 72 h, read-out: Mean HMEC-1 IC50 ± SD",5220 ± 1070 nM
same,SI (selectivity index),[4]; ratio IC50 against HMEC-1 cells / IC50 against D10 asexual parasites,37.8
same,IC50,3D7 mature gametocytes,4650 ± 520 nM
same,effect of combination (isobologram analysis),[5],additive effect
same,fractional inhibitory concentration (FIC),[5],< 2
same,IC50,Rac1,1100 nM
